Assay results from patent publication US9616062B2, “Cyclin dependent kinase inhibitors and methods of use” (priority 2009, dated 2017).

How the values were obtained:
[1] = test system: primary human renal proximal tubule epithelial cells; assay: Cell proliferation, CellTiter-Glo, 72 hours; format: cell-based; conditions: 0, 10 nM-3 μM, 72 hours post exposure
Procedure: FIG. 3: CDK4/6 inhibition blocks proliferation of primary human renal proximal tubule epithelial cells. Cells were treated with varying concentrations of PD0332991 for 72 hours. Following incubation, cell proliferation was quantified using CellTiter-Glo® (Promega, Madison, Wis., United States of America). Data represent the mean of four replicates (relative light units, RLU) +/−standard deviation.
Primary normal human renal proximal epithelial cells (American Type Culture Collection (ATCC), Manassas, Va., United States of America) were cultured in renal epithelial cell basal media supplemented with renal epithelial cell growth kit according to the manufacturer's recommendations. […] For the γH2AX assay, cells were fixed, permeabilized, and stained with anti-γH2AX as per γH2AX Flow Kit (Millipore, Billerica, Mass., United States of America). γH2AX levels were assessed by flow cytometry. Cell proliferation was assessed by seeding 1×10^3 cells per well in a 96-well tissue culture plate in 100 μL of growth medium. […] At the end of the recovery period, cell number was quantified using CellTiter-Glo® (Promega, Fitchburg, Wis., United States of America) or WST-1 reagent (TaKaRa Bio USA, Madison, Wis., United States of America). […] 100 μL of TOXILIGHT™ reagent is added and incubated for 5 minutes and read in a luminometer at 1 second/well. […]

[2] = test system: human peripheral blood T cells (memory and naive); assay: Human peripheral blood T cell proliferation after PMA and ionomycin stimulation (BrdU, Ki-67 FACS); format: cell-based
Procedure: FIG. 13: CDK4/6 inhibitors suppress T cell proliferation upon stimulation through TCR pathway in both memory and naïve compartments. Human peripheral blood T cells were purified using Automacs by CD3 positive selection before being treated with CDK4/6 inhibitors and stimulated with PMA and Inomycin for 48 hrs. The proliferation of memory […] T cells after stimulation by PMA and Inomycin was measured by FACS staining of BrdU+ or Ki-67+ cells. The percentages of inhibition are shown, which indicates more inhibition of memory compartment than naïve compartment.
FIG. 14: CDK4/6 inhibitors suppress T cell proliferation upon stimulation through TCR pathway. […] Proliferation determined by BrdU or Ki67 incorporation. […]
FIG. 15: Changes of CD4 T cell composition after CDK4/6 inhibition. […] The memory and terminal differentiated T cell fractions as assessed by BrdU incorporation are reduced after CDK4/6 inhibition. […]
FIG. 16: Changes of CD4 T cell composition after CDK4/6 inhibition. […] The memory and terminal differentiated T cell fractions as assessed by Ki67 staining are reduced after CDK4/6 inhibition. […]
Similar results were seen using human lymphocytes. […] In FIG. 15, the effects of CDK4/6 inhibition on specific Tcell fractions is assessed, with and without TCR, showing CDK4/6 inhibition has a greater effect on proliferation of memory cells relative to naïve cells. […]

In the case of CC(=O)c1c(C)c2cnc(Nc3ccc(N4CCNCC4)cn3)nc2n(C2CCCC2)c1=O [PD0332991, 6-acetyl-8-cyclopentyl-5-methyl-2-(5-piperazin-1-yl-pyridin-2-ylamino)-8H-pyrido-[2,3-d]-pyrimidin-7-one], the “inhibition of cell proliferation vs DMSO control” value [1] is reported as “clear dose dependent inhibition of cell proliferation” and the “proliferation of memory vs naive T cells (BrdU incorporation, Ki67 expression)” value [2] is reported as “more significant decrease in homeostatic proliferation of memory T cells than naive T cells”.
